Laboratory results as given in patent US20050089839A1, “Assay” (priority 2001, published 2005).
Where a SMILES comes first, the peptide text is derived from it. The star is where a group is joined. Cbz = O=C(OCc1ccccc1)*

Key:
SPPase [1] = experiment: Photo-labelling of CHAPS-solubilised ER membrane proteins with TBL4K, anti-biotin western blot; assay type: binding, dog; details: 50 nM TBL4K
Description: CHAPS-solubilised ER membrane proteins were mixed with 50 nM TBL4K (dissolved in DMSO) and samples incubated at 30° C. for 1 hour. Where indicated, samples were irradiated with UV light before precipitation with 10% trichloroacetic acid. Proteins were resolved on Tris-glycine acrylamide gels, transferred to PVDF membrane and biotinylated proteins were visualised by western blotting with polyclonal anti-biotin antibody.
For analytical labelling, 2 μl of CHAPS-solubilised ER membrane proteins were diluted with 16 μl of SPPase buffet (25 mM HEPES-KOH, pH 7.6, 100 mM KOAc, 2 mM Mg(OAc)2, 1 mM DTI) and supplemented with 50 nM TBL4K (dissolved in DMSO). Samples were incubated at 30° C. for 1 hour and subsequently irradiated with UV light (30 seconds; 350 W high pressure mercury lamp with a pyrex filter, 10 cm distance to lamp). Proteins were precipitated with 10% trichloroacetic acid and resolved on either Tris-glycine acrylamide gels (10% T, 2.7% C) (Lämmli, 1970 Nature, 227, 570-574). Biotinylated proteins were visualised by Western blotting with a polyclonal anti-biotin antibody (Bethyl). Western blot analysis was performed as described in Section 3, Materials and Methods for R308 antisera. […]

signal peptidase = details: previous studies (Weihofen et al., 2000); cited from earlier work
[2] = target: T1, signal peptide peptidase (SPPase) (Canis lupus familiaris, UniProt A0A8I3P6M4); experiment: In vitro translation/translocation of SP-E1/100 and core-E1/100 with ER-derived rough microsomes: SPPase processing; assay type: biochemical, dog; details: 10 μM (Z-LL)2-ketone; for Production of the 19 kDa core species (core179) from core-E1/100: FIG. 1B, FIG. 3B
T1 construct: translated in reticulocyte lysate in the presence of endoplasmic reticulum-(ER) derived rough microsomes; from tissue; host or cells: nuclease-treated rough microsomes from dog pancreas
Description: The mRNAs were translated in 25 μl rabbit reticulocyte lysate (Promega) containing [^35S]-methionine (Amersham-Pharmacia) and, where indicated, 2 eq of nuclease-treated rough microsomes prepared from dog pancreas (Martoglio et al., 1998, Cell Biology: A Laboratory Handbook. Academic Press, San Diego, Calif., vol 2, 265-274). To inhibit signal peptide peptidase (SPPase) processing, 10 μM (Z-LL)2-ketone was added to reactions (Weihofen et al., 2000 J Biol Chem 275, 30951-30956), and reactions were supplemented with 30 μM N-benzoyl-Asn-Leu-Thr-methyamide to prevent N-glycosylation of translated products (Martoglio et al., 1998, Cell Biology: A Laboratory Handbook. Academic Press, San Diego, Calif., vol 2,265-274). Samples were incubated for 30 min at 30° C. Reactions containing microsomes were next diluted with 25 μl of RM buffer (50 mM HEPES-KOH, pH7.6, 50 mM KOAc, 2 mM Mg(OAc)2, 1 mM DTT, 250 mM sucrose), and the salt concentration was raised to 500 mM KOAc. After incubation for 5 min on ice, membranes were separated by centrifugation through a 100 μl sucrose cushion (RM buffer with 500 mM KOAc and 500 mM sucrose) at 48,000 rpm for 3 min at 4° C. in a Beckman TLA100 rotor. Membrane pellets were prepared for SDS-PAGE as described (Weihofen et al., 2000 J Biol Chem. 275, 30951-30956).
This processing event was re-examined in an in vitro translation/translocation system. Two RNA substrates, that had been transcribed in vitro, were employed. One contained the E1 signal sequence and the N-terminal 100 aa of E1 (SP-E1/100), and the second consisted of the entire core protein, including the signal sequence, plus the N-terminal 100 aa of E1 (core-E1/100). These were translated in reticulocyte lysate in the presence of endoplasmic reticulum-(ER) derived rough microsomes and [^35S]-methionine. Microsomes were subsequently isolated and analysed for retention of radiolabelled translation products.

BHK C13 cells = experiment: Abundance of HCV core protein in electroporated BHK cells treated with MG132 (western blot, immunofluorescence); assay type: cell-based, baby hamster; details: MG132 for 12 hours at 37° C.
Description: BHK cells were electroporated with RNA and 5 hours after incubation at 37° C., they were treated with MG132 for 12 hours at 37° C. Cells were either fixed with methanol for indirect immunofluorescence (A) or extracts were prepared for Western blot analysis (B and C).
For the purposes of the present invention, the cultured cells derived from baby hamster kidney (BHK) C13 cells were grown and maintained in Glasgow minimal Eagle's Medium supplemented with 10% new-born calf serum (CS), 4% tryptose phosphate broth, and 100 IU/ml penicillin/streptomycin (ETC10). To treat cells with MG132 (Boston Biochem), cultured cells were incubated for 5 hours after electroporation at 37° C. and the BHK media was replaced with fresh media containing the protease inhibitor at a final concentration of […]. Incubation was continued at 37° C. for a further 12 hours before the cells were either harvested for Western blot analysis or fixed for indirect immunofluorescence studies.

SPPase [3] = experiment: Signal peptide processing of p-PrlPP/29 by CHAPS-solubilised ER membrane proteins containing SPPase activity; assay type: biochemical, dog; parameters: SPF production: dose or concentration left out as unconfirmed
Description: Radio-labelled p-Prl^PP/29 signal peptide was generated by in vitro translation in wheat germ extract containing [^35S]-methionine. Peptide was added to CHAPS-solubilised membranes in the absence or presence of TBL4K (at the indicated final concentrations) and incubated for 1 hour at 30° C. Proteins were precipitated with 10% trichloroacetic acid and analysed by SDS-PAGE using Tris-bicine-urea acrylamide gels. Bands corresponding to signal peptide substrate (ps) and the fragment of signal peptide remaining after SPPase processing (SPF) are indicated.
The inhibitory effect of TBL4K on SPPase was assayed with CHAPS-solubilised ER membrane proteins and an in vitro translated peptide substrate. The substrate was a 29 aa residues long mutant signal peptide of pre-prolactin (p-Prl^PP/29; […]). The VV→PP mutation at the end of the signal peptide prevents cleavage by signal peptidase, which can cleave the peptide at the cryptic cleavage site at G27 when solubilised in CHAPS (B.M. unpublished). […] Proteins were precipitated by adding 4 μl of 100% trichloroacetic acid, and analysed by SDS-PAGE using Tris-bicine-urea acrylamide gels (15% T or 10% T, 5% C; 8 M urea) (Wiltfang et al., 1997 Electrophoresis 18, 527-532). […]

[4] = test system: T2, p-Prl^PP/29, 29 aa mutant signal peptide of pre-prolactin
T2 sequence: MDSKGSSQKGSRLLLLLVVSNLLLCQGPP

T1 sequence (A0A8I3P6M4 entry or part of it): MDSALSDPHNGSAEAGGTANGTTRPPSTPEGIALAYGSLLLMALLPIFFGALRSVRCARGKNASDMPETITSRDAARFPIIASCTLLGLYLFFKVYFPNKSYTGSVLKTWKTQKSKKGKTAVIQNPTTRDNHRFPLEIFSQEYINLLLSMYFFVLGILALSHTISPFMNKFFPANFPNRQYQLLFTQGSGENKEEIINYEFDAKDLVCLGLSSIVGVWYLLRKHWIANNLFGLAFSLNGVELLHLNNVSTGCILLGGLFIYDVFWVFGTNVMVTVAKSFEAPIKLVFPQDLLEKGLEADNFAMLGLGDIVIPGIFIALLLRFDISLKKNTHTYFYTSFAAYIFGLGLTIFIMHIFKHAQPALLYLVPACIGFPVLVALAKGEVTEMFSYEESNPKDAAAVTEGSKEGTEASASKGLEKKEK

## CC(C)C[C@H](NC(=O)OCc1ccccc1)C(=O)N[C@@H](CC(C)C)C(=O)NCC(=O)CNC(=O)[C@H](CC(C)C)NC(=O)[C@H](CC(C)C)NC(=O)OCc1ccccc1 [(Z-LL)2 ketone]
SPPase [1]; highest concentration of (Z-LL)2 ketone, FIG. 10
  Labelling by TBL4K in presence of competitor: almost completely abolished
Signal peptidase
  Effect on cleavage by signal peptidase: does not affect
[2]; FIG. 1A
  Cleavage by SPPase of the signal peptide generated from SP-E1/100: blocked
[2]
  Production of the 19 kDa core species (core179) from core-E1/100: blocked
[2]; listed as SPPase inhibitor
  Production of the 19 kDa core species (core179) from core-E1/100: not generated

## CC(C)C[C@@H](C=O)NC(=O)[C@H](CC(C)C)NC(=O)[C@H](CC(C)C)NC(=O)OCc1ccccc1 [MG132] (Cbz-Leu-Leu-Leu-aldehyde)
BHK C13 cells; FIG. 7B lanes 3 and 4
  Levels of core produced by pSF/CE1E2 (core variant lacking residues 125-144): enhanced levels
BHK C13 cells; FIG. 7B lanes 5 and 6
  Amount of core in cells electroporated with pSF/MUTIII RNA (125-144 deleted, signal peptide mutations): did not affect

## (TDBA-LL)(Biotin-X-LL) ketone [TBL4K]
SPPase [3]; highest concentration used
  SPF production: abolished
SPPase [3]; substrate p-PrlPP/29, 1 hour at 30° C., FIG. 9, read-out: IC50 for inhibition of SPPase activity
  IC50: ~50 nM
SPPase [1]; UV light, FIG. 10 lane 3
  Proteins labelled after UV activation: labelling of a major product of about 42 kDa

## signal peptide peptidase (SPPase) of ER-derived rough microsomes from dog pancreas
SP-E1/100 (wild type)
  signal peptide processing by SPPase (in vitro translation/translocation, with and without (Z-LL)2 ketone): the internal signal sequence at the junction of core-E1 functions as a typical ER targeting signal and is a substrate not only for signal peptidase but also for SPPase
core-E1/100 (wild type)
  efficiency of processing (core179 relative to core191+core179): reduced efficiency of processing from 40% to 12%
  production of the 19 kDa core species (in vitro translation/translocation, with and without (Z-LL)2 ketone): the signal peptide at the junction of core-E1 sequences in HCV is first cleaved by signal peptidase and subsequently processed by SPPase
SP-E1/100 MUTI
  cleavage of the signal peptide (in vitro translation/translocation): cleavage of the signal peptide was reduced with both mutants, but to a greater extent with pSP/MUTII as compared to pSP/MUTI
[4]
  signal peptide processing (production of the SPF fragment) with CHAPS-solubilised ER membrane proteins: signal peptide processing reactions were performed with a substrate, p-Prl^PP/29, that corresponds to a mutated signal peptide of pre-prolactin, and CHAPS-solubilised ER membrane proteins containing SPPase activity
core-E1/100 MUTIII
  product cleaved by SPPase (in vitro translation/translocation): failed to generate any detectable product that had been cleaved by SPPase
core-E1/100 MUTII
  product cleaved by SPPase (in vitro translation/translocation): failed to generate any detectable product that had been cleaved by SPPase
core-E1/100 MUTI
  efficiency of processing (core179 relative to core191+core179): reduced efficiency of processing from 40% to 12%
SP-E1/100 MUTII
  cleavage of the signal peptide (in vitro translation/translocation): cleavage of the signal peptide was reduced with both mutants, but to a greater extent with pSP/MUTII as compared to pSP/MUTI
SP-E1/100 MUTIII
  processing of the signal peptide by SPPase: less than 5% processing of the signal peptide by SPPase
